In US10781185B2, “Heterocyclic compounds for the inhibition of PASK” (BioEnergenix LLC, priority 2009, dated 2020):

Assays:
PASK [1] = target: PASK (UniProt # Q96RG2; human recombinant N-terminal GST tagged construct, residues 879-1323) (Homo sapiens (Human), UniProt Q96RG2); assay: PASK ATP Radiochemical Assay; format: biochemical; settings: 33P-ATP radiochemical, Myelin Basic Protein substrate; read-out: IC50 Kinase Domain
Experimental: PASK ATP Radiochemical Assay
Test compounds in DMSO are then added and the mixture, followed by delivery of ^33P-ATP (specific activity 0.01 μCi/μl final) to initiate the reaction. […] The entire reaction mixture is washed through onto a P81 Phosphocellulose paper and washed three times for 10 minutes in 75 mM phosphoric acid and once in methanol prior to drying and scintillation counting.

PASK [2] = target: PASK (Homo sapiens (Human), UniProt Q96RG2); assay: PAS Kinase FRET Assay; format: biochemical; settings: TR-FRET, Ulight-peptide substrate; read-out: IC50 Kinase Domain
Chain of PASK (Homo sapiens (Human), UniProt Q96RG2) (Q96RG2 999-1251): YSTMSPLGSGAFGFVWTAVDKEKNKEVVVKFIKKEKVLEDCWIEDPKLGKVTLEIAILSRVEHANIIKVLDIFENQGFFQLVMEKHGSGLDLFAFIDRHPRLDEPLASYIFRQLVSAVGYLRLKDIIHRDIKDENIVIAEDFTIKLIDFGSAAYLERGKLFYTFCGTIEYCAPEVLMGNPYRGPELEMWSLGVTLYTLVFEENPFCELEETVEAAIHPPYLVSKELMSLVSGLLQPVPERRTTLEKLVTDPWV
Excerpt: PAS Kinase FRET Assay The aim of the FRET assay is to determine the inhibition potential of test compounds on targeted kinase. This assay platform provides a homogenous screening method for measuring kinase activity by quantitating the amount of phospho-substrate in solution following a kinase reaction. In the presence of kinase and ATP, the Ulight-peptide is phosphorylated and captured by an anti-phospho-substrate antibody, which brings the Eu chelate donor and Ulight acceptor dyes into close proximity. […] The contents of the plate were and incubated at RT for 1 h. The reaction was stopped by adding 5 μl of stop solution to each test well followed by mixing and incubation at RT for 10 minutes. 5 μl of detection mix (detection antibody diluted in detection buffer) was added; the contents of the plate were mixed and then incubated in the dark for 1 hour at RT. […] The results were graphed to calculate the EC50. Titration of ATP at the EC50 concentration of kinase to determine ATP Km,app. was performed using the following method. […] The contents of the plate were and incubated at RT for 1 h. The reaction was stopped by adding 5 μl of stop solution to each test well followed by mixing and incubation at RT for 10 minutes. 5 μl of detection mix (detection antibody diluted in detection buffer) was added; the contents of the plate were mixed and then incubated in the dark for 1 hour at RT. […] The results were graphed to calculate the EC50 as the ATP Km,app. […] If compound is not soluble under this condition, it was diluted to 3 mM. Kinase reaction buffer was prepared containing 10 mM MgCl2, 50 mM HEPES, 1 mM EGTA, 0.01% TWEEN-20, 2 mM DTT. […] As a positive control, 2.5 μl of positive compound was added to assay wells, and 2.5 μl of DMSO to assay wells as vehicle control. Kinase solution was prepared in reaction buffer at 2× final assay concentration. Kinase solution (5 μl) was added to each well of the assay plate. The substrate and ATP solution was prepared in kinase reaction buffer at 4× final assay concentration. The kinase reaction was started by adding 2.5 μl of substrate+ATP mix solution to each well of the assay plate. The plate is mixed on a plate shaker; then covered and allowed to react for 2 hours in the dark at 25° C. without shaking. The reaction was stopped by adding 5 μl of stop solution to each test well followed by mixing and incubation at RT for 10 minutes in the dark. 5 μl of detection mix (detection antibody diluted in detection buffer) was added; the contents of the plate were mixed and then incubated in the dark for 1 hour at RT.

Chain of PASK (UniProt # Q96RG2; human recombinant N-terminal GST tagged construct, residues 879-1323) (Homo sapiens (Human), UniProt Q96RG2) (Q96RG2 879-1323, change not shown): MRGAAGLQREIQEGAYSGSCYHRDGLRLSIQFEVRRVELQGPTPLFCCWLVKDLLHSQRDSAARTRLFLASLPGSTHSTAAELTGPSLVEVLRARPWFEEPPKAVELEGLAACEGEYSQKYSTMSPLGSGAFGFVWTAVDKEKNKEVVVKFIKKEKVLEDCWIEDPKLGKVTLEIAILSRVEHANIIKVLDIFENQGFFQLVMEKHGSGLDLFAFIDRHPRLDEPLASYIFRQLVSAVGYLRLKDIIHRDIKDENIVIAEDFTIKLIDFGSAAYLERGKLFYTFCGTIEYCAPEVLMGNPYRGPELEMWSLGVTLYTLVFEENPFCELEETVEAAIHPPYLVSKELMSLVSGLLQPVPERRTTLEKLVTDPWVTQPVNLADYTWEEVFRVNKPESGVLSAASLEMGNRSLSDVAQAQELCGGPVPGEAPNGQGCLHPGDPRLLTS

Row | IC50 (PASK [1]) [µM] | IC50 (PASK [2]) [µM] | Compound
1 | < 10 | – | O=C(O)c1ccc2nc(-c3ccccc3)c(N3CCN(c4ccc(C(F)(F)F)cc4)CC3)nc2c1 [Example 1, 2-Phenyl-3-(4-(4-(trifluoromethyl)phenyl)piperazin-1-yl)quinoxaline-6-carboxylic acid]
2 | > 10 | – | CN1CCN(c2nc3cc(C(=O)O)ccc3nc2-c2ccccc2)CC1 [Example 4, 3-(4-Methylpiperazin-1-yl)-2-phenylquinoxaline-6-carboxylic acid]
3 | < 10 | – | O=C(O)c1ccc2nc(-c3ccccc3)c(N3CCC(c4ccc(C(F)(F)F)cc4)CC3)nc2c1 [Example 7, 2-Phenyl-3-(4-(4-(trifluoromethyl)phenyl)piperidin-1-yl)quinoxaline-6-carboxylic acid]
4 | < 10 | – | O=C(O)c1ccc2nc(-c3ccccc3)c(N3CCC(c4cccc(Cl)c4)CC3)nc2c1 [Example 10, 3-(4-(3-Chlorophenyl)piperidin-1-yl)-2-phenylquinoxaline-6-carboxylic acid]
5 | < 10 | – | O=C(O)c1ccc2nc(-c3ccccc3)c(N3CCCCC3)nc2c1 [Example 12, 2-Phenyl-3-(piperidin-1-yl)quinoxaline-6-carboxylic acid]
6 | < 10 | – | O=C(O)c1ccc2nc(-c3ccccc3)c(N3CCCCCC3)nc2c1 [Example 14, 3-(Azepan-1-yl)-2-phenylquinoxaline-6-carboxylic acid]
7 | < 10 | ≤ 10 | O=C(O)c1ccc2nc(-c3ccccc3)c(N3CCCc4ccccc43)nc2c1 [Example 40, 3-(3,4-Dihydroquinolin-1(2H)-yl)-2-phenylquinoxaline-6-carboxylic acid]
8 | < 10 | ≤ 10 | CC(C)N(C)c1nc2cc(C(=O)O)ccc2nc1-c1ccccc1 [Example 43, 3-(Isopropyl(methyl)amino)-2-phenylquinoxaline-6-carboxylic acid]
9 | < 10 | ≤ 10 | CN(c1nc2cc(C(=O)O)ccc2nc1-c1ccccc1)C1CC1 [Example 46, 3-(Cyclopropyl(methyl)amino)-2-phenylquinoxaline-6-carboxylic acid]
10 | < 10 | ≤ 10 | COC[C@H]1CCCN1c1nc2cc(C(=O)O)ccc2nc1-c1ccccc1 [Example 51, (R)-3-(2-(Methoxymethyl)pyrrolidin-1-yl)-2-phenylquinoxaline-6-carboxylic acid]
11 | < 10 | ≤ 10 | O=C(O)c1ccc2nc(-c3ccccc3)c(N3CCC[C@@H]3CO)nc2c1 [Example 52, (R)-3-(2-(Hydroxymethyl)pyrrolidin-1-yl)-2-phenylquinoxaline-6-carboxylic acid]
12 | < 10 | ≤ 10 | CC(C)N(C)c1nc2cc(C(=O)O)ccc2nc1-c1ccc(F)cc1 [Example 57, 2-(4-Fluorophenyl)-3-(isopropyl(methyl)amino)quinoxaline-6-carboxylic acid]
13 | < 10 | ≤ 10 | CC(C)N(C)c1nc2cc(C(=O)O)ccc2nc1-c1ccc(F)c(F)c1 [Example 63, 2-(3,4-Difluorophenyl)-3-(isopropyl(methyl)amino)quinoxaline-6-carboxylic acid]
14 | < 10 | ≤ 10 | O=C(O)c1ccc2nc(-c3ccccc3)c(N3CCC[C@@H]3C(F)(F)F)nc2c1 [Example 65, (R)-2-Phenyl-3-(2-(trifluoromethyl)pyrrolidin-1-yl)quinoxaline-6-carboxylic acid]
15 | < 10 | ≤ 10 | COc1ccc2c(c1)CCCN2c1nc2cc(C(=O)O)ccc2nc1-c1ccccc1 [Example 66, 3-(6-Methoxy-3,4-dihydroquinolin-1(2H)-yl)-2-phenylquinoxaline-6-carboxylic acid]
16 | < 10 | ≤ 10 | O=C(O)c1ccc2nc(-c3ccc(F)cc3)c(N3CCCCC3)nc2c1 [Example 75, 2-(4-Fluorophenyl)-3-(piperidin-1-yl)quinoxaline-6-carboxylic acid]
17 | < 10 | ≤ 10 | O=C(O)c1ccc2nc(-c3ccc(F)cc3)c(N3CCCCCC3)nc2c1 [Example 76, 3-(Azepan-1-yl)-2-(4-fluorophenyl)quinoxaline-6-carboxylic acid]
18 | – | ≤ 10 | O=C1CN(c2nc3cc(C(=O)O)ccc3nc2-c2ccc(F)cc2)CCN1 [Example 103, 2-(4-Fluorophenyl)-3-(3-oxopiperazin-1-yl)quinoxaline-6-carboxylic acid]
19 | – | ≤ 10 | CN(c1nc2cc(C(=O)O)ccc2nc1-c1ccc(F)cc1)C1CCOCC1 [Example 105, 2-(4-Fluorophenyl)-3-(methyl(tetrahydro-2H-pyran-4-yl)amino)quinoxaline-6-carboxylic acid]
20 | – | ≤ 10 | CN(c1nc2cc(C(=O)O)ccc2nc1-c1ccc(F)cc1)C1CCCC1 [Example 106, 3-(Cyclopentyl(methyl)amino)-2-(4-fluorophenyl)quinoxaline-6-carboxylic acid]
21 | – | ≤ 10 | Cc1ccc(-c2nc3ccc(C(=O)O)cc3nc2N(C)C(C)C)s1 [Example 107, 3-(Isopropyl(methyl)amino)-2-(5-methylthiophen-2-yl)quinoxaline-6-carboxylic acid]
22 | – | ≤ 10 | CC(C)N(C)c1nc2cc(C(=O)O)ccc2nc1-c1cccs1 [Example 108, 3-(Isopropyl(methyl)amino)-2-(thiophen-2-yl)quinoxaline-6-carboxylic acid]
23 | – | ≤ 10 | CC(=O)N(C)C1CCN(c2nc3cc(C(=O)O)ccc3nc2-c2ccc(F)cc2)CC1 [Example 111, 2-(4-Fluorophenyl)-3-(4-(N-methylacetamido)piperidin-1-yl)quinoxaline-6-carboxylic acid]
24 | – | ≤ 10 | CN1CCN(c2nc3cc(C(=O)O)ccc3nc2-c2ccc(F)cc2)CC1=O [Example 112, 2-(4-Fluorophenyl)-3-(4-methyl-3-oxopiperazin-1-yl)quinoxaline-6-carboxylic acid]

Row | Compound | IC50 (PASK [1]) [µM] | IC50 (PASK [2]) [µM]
25 | O=C(O)c1ccc2nc(-c3ccccc3)c(N3CCN(c4ccccn4)CC3)nc2c1 [Example 2, 2-Phenyl-3-(4-(pyridin-2-yl)piperazin-1-yl)quinoxaline-6-carboxylic acid] | < 10 | –
26 | O=C(O)c1ccc2nc(-c3ccccc3)c(N3CCN(c4cccc(Cl)c4)CC3)nc2c1 [Example 3, 3-(4-(3-Chlorophenyl)piperazin-1-yl)-2-phenylquinoxaline-6-carboxylic acid] | < 10 | –
27 | O=C(O)c1ccc2nc(-c3ccccc3)c(N3CCN(c4ccccc4)CC3)nc2c1 [Example 6, 2-Phenyl-3-(4-phenylpiperazin-1-yl)quinoxaline-6-carboxylic acid] | < 10 | –
28 | O=C(O)c1ccc2nc(-c3ccccc3)c(N3CCN(c4ccc(Cl)cc4)CC3)nc2c1 [Example 8, 3-(4-(4-Chlorophenyl)piperazin-1-yl)-2-phenylquinoxaline-6-carboxylic acid] | < 10 | –
29 | COc1ccc(N2CCN(c3nc4cc(C(=O)O)ccc4nc3-c3ccccc3)CC2)cc1 [Example 9, 3-(4-(4-Methoxyphenyl)piperazin-1-yl)-2-phenylquinoxaline-6-carboxylic acid] | < 10 | –
30 | O=C(O)c1ccc2nc(-c3ccccc3)c(N3CCC(c4ccccc4)CC3)nc2c1 [Example 13, 2-Phenyl-3-(4-phenylpiperidin-1-yl)quinoxaline-6-carboxylic acid] | < 10 | –
31 | O=C(O)c1ccc2nc(-c3ccccc3)c(N3CCC(c4ccc(Cl)cc4)CC3)nc2c1 [Example 15, 3-(4-(4-Chlorophenyl)piperidin-1-yl)-2-phenylquinoxaline-6-carboxylic acid] | < 10 | –
32 | COc1ccc(-c2nc3ccc(C(=O)O)cc3nc2N(C)C(C)C)cc1 [Example 58, 3-(Isopropyl(methyl)amino)-2-(4-methoxyphenyl)quinoxaline-6-carboxylic acid] | < 10 | ≤ 10
33 | CC(C)N(C)c1nc2cc(C(=O)O)ccc2nc1-c1ccc(Cl)cc1 [Example 64, 2-(4-Chlorophenyl)-3-(isopropyl(methyl)amino)quinoxaline-6-carboxylic acid] | < 10 | ≤ 10
